31 compounds from patent US8183272B2, “Indanyl compounds” (Daiichi Sankyo Company, Limited, priority 2008, dated 2012) can be followed below.

Bounds are passed on as bounds.

This assay concerns the target T1, human calcium-sensing receptor (CaSR) (Homo sapiens, UniProt P41180).
T1 construct: expressed in transfected cells; host or cells: CHO cells (CHO/hCaSR)
T1 sequence (P41180 20-1078): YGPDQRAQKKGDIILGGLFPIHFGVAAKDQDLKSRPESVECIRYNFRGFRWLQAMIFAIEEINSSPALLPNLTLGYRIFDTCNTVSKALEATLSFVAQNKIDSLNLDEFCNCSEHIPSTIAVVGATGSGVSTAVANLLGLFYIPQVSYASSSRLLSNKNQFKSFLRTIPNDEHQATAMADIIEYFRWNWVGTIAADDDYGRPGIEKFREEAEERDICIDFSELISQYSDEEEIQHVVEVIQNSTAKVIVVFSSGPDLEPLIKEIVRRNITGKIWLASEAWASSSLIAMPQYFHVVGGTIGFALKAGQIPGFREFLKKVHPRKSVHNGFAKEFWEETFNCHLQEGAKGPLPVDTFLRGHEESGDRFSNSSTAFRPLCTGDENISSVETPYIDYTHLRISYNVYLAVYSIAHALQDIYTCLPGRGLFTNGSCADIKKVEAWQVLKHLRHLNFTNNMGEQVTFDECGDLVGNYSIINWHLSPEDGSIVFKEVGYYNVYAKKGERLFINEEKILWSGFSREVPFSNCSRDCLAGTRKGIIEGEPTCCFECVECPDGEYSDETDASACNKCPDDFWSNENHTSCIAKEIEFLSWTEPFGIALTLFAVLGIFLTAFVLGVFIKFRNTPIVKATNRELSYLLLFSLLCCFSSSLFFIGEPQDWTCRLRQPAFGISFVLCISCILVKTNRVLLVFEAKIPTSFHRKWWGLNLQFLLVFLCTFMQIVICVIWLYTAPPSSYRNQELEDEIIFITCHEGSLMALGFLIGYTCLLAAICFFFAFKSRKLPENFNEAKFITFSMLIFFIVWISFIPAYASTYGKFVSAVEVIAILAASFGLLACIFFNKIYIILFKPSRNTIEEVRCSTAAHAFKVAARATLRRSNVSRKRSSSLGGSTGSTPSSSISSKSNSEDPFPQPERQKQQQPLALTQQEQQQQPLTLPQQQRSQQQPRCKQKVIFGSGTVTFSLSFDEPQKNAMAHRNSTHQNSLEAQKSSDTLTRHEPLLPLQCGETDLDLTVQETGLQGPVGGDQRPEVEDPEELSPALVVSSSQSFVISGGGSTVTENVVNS
In words: Inhibitory activity on calcium-sensing receptor (CaSR) using intracellular calcium increase as an indicator (FLIPR, CHO/hCaSR). To be noted: CHO/hCaSR cells; intracellular Ca increase induced by CaCl2; test compound 1.05 to 10,000 nM. The assay is classed as cell-based. How it is done: Evaluation of inhibitory activity on calcium-sensing receptor (CaSR) using intracellular calcium increase as an indicator
The preparation which is prepared by adding CHO/hCaSR to F12 medium (manufactured by Invitrogen) containing 10% fetal bovine serum to have 2×10^5 cells/mL was applied to a 384-well in an amount of 50 μL/well, and then incubated overnight in a CO2 incubator. The culture supernatant was completely removed, the assay buffer (20 mM HEPES, HBSS (Ca and Mg free) containing 2.5 mM probenecid, pH 7.4) containing Calcium 3 (manufactured by Molecular Devices), i.e., a fluorescent intracellular calcium indicator, was added thereto in an amount of 25 μL/well, and the mixture was maintained for 1 hour in a CO2 incubator. Meanwhile, Calcium 3 was prepared according to the protocol enclosed in FLIPR Calcium 3 Assay Kit (manufactured by Molecular Devices). After maintaining it for 1 hour, a solution in which the test compound is prepared to have 2.1 to 20,000 nM (final concentration of 1.05 to 10,000 nM) by an assay buffer was added thereto in an amount of 25 μL/well, and maintained for 15 minutes in a CO2 incubator. Then, the CaCl2 solution prepared to have […] by using the assay buffer was added in an amount of 25 μL/well, and the resulting intracellular Ca increase (i.e., fluorescence intensity) was measured over time using a fluorescence imaging plate reader (FLIPR, manufactured by Molecular Devices). From the data obtained, the difference between the fluorescence intensity before the addition of CaCl2 solution and the maximum fluorescence intensity after the addition of CaCl2 solution was calculated, and the 50% inhibition concentration (IC50) of the test compound was obtained.
`C[C@@H](OC[C@H](O)CNC(C)(C)CC1Cc2ccccc2C1)c1c(F)cccc1CCC(=O)O` [31 low polarity, 3-{2-[(1R)-1-{[(2R)-3-{[1-(2,3-dihydro-1H-inden-2-yl)-2-methylpropan-2-yl]amino}-2-hydroxypropyl]oxy}ethyl]-3-fluorophenyl}propanoic acid]: the 50% inhibitory concentration (IC50) is ≤ 2.4 µM.

For `C[C@@H](OC[C@H](O)CNC(C)(C)CC1Cc2ccccc2C1)c1ccccc1CCC(=O)O` [Example 1, 3-{2-[(1R)-1-{[(2R)-3-{[1-(2,3-Dihydro-1H-inden-2-yl)-2-methylpropan-2-yl]amino}-2-hydroxypropyl]oxy}ethyl]phenyl}propanoic acid], the IC50 is ≤ 2.5 µM.

In the case of `C[C@@H](OC[C@H](O)CNC(C)(C)CC1Cc2ccccc2C1)c1ccccc1CCCC(=O)O` [Example 2, 4-{2-[(1R)-1-{[(2R)-3-{[1-(2,3-Dihydro-1H-inden-2-yl)-2-methylpropan-2-yl]amino}-2-hydroxypropyl]oxy}ethyl]phenyl}butanoic acid], the concentration for half-maximal inhibition (IC50) is ≤ 2.42 µM.

For the compound `Cc1cc(-c2ccccc2[C@@H](C)OC[C@H](O)CNC(C)(C)CC2Cc3ccccc3C2)ccc1C(=O)O` [Example 3, 2′-[(1R)-1-{[(2R)-3-{[1-(2,3-Dihydro-1H-inden-2-yl)-2-methylpropan-2-yl]amino}-2-hydroxypropyl]oxy}ethyl]-3-methylbiphenyl-4-carboxylic acid], the IC50 was ≤ 2.19 µM.

Regarding `Cc1ccc([C@@H](C)OC[C@H](O)CNC(C)(C)CC2Cc3ccccc3C2)c(CCC(=O)O)c1` [Example 5, 3-{2-[(1R)-1-{[(2R)-3-{[1-(2,3-Dihydro-1H-inden-2-yl)-2-methylpropan-2-yl]amino}-2-hydroxypropyl]oxy}ethyl]-5-methylphenyl}propanoic acid], the half-maximal inhibitory concentration (IC50) is ≤ 2.42 µM.

As for `Cc1ccc(CCC(=O)O)c([C@@H](C)OC[C@H](O)CNC(C)(C)CC2Cc3ccccc3C2)c1` [Example 6, 3-{2-[(1R)-1-{[(2R)-3-{[1-(2,3-Dihydro-1H-inden-2-yl)-2-methylpropan-2-yl]amino}-2-hydroxypropyl]oxy}ethyl]-4-methylphenyl}propanoic acid], the IC50 was ≤ 2.42 µM.

`C[C@@H](OC[C@H](O)CNC(C)(C)CC1Cc2ccccc2C1)c1cccc(F)c1CCC(=O)O` [Example 7, 3-{2-[(1R)-1-{[(2R)-3-{[1-(2,3-Dihydro-1H-inden-2-yl)-2-methylpropan-2-yl]amino}-2-hydroxypropyl]oxy}ethyl]-6-fluorophenyl}propanoic acid]: the IC50 was ≤ 2.4 µM.

Turning to `C[C@@H](OC[C@H](O)CNC(C)(C)CC1Cc2ccccc2C1)c1ccc(F)cc1CCC(=O)O` [Example 8, 3-{2-[(1R)-1-{[(2R)-3-{[1-(2,3-Dihydro-1H-inden-2-yl)-2-methylpropan-2-yl]amino}-2-hydroxypropyl]oxy}ethyl]-5-fluorophenyl}propanoic acid], the IC50 was ≤ 2.4 µM.

As to `C[C@@H](OC[C@H](O)CNC(C)(C)CC1Cc2ccccc2C1)c1cc(F)ccc1CCC(=O)O` [Example 9, 3-{2-[(1R)-1-{[(2R)-3-{[1-(2,3-Dihydro-1H-inden-2-yl)-2-methylpropan-2-yl]amino}-2-hydroxypropyl]oxy}ethyl]-4-fluorophenyl}propanoic acid], the IC50 was ≤ 2.4 µM.

Consider `C[C@@H](OC[C@H](O)CNC(C)(C)CC1Cc2ccccc2C1)c1cccc(C(F)(F)F)c1CCC(=O)O` [Example 10, 3-{2-[(1R)-1-{[(2R)-3-{[1-(2,3-Dihydro-1H-inden-2-yl)-2-methylpropan-2-yl]amino}-2-hydroxypropyl]oxy}ethyl]-6-(trifluoromethyl)phenyl}propanoic acid], for which the IC50 is ≤ 2.17 µM.

For `C[C@@H](OC[C@H](O)CNC(C)(C)CC1Cc2ccccc2C1)c1ccc(C(F)(F)F)cc1CCC(=O)O` [Example 11, 3-{2-[(1R)-1-{[(2R)-3-{[1-(2,3-Dihydro-1H-inden-2-yl)-2-methylpropan-2-yl]amino}-2-hydroxypropyl]oxy}ethyl]-5-(trifluoromethyl)phenyl}propanoic acid], the IC50 was ≤ 2.17 µM.

Turning to `Cc1cc(-c2ccccc2[C@@H](C)OC[C@H](O)CNC2(CC3Cc4ccccc4C3)CC2)ccc1C(=O)O` [Example 12, 2′-[(1R)-1-{[(2R)-3-{[1-(2,3-Dihydro-1H-inden-2-ylmethyl)cyclopropyl]amino}-2-hydroxypropyl]oxy}ethyl]-3-methylbiphenyl-4-carboxylic acid], the half-inhibitory concentration (IC50) is ≤ 2.2 µM.

Take `C[C@@H](OC[C@H](O)CNC(C)(C)CC1Cc2ccccc2C1)c1ccccc1CCCCC(=O)O` [Example 13, 5-{2-[(1R)-1-{[(2R)-3-{[1-(2,3-Dihydro-1H-inden-2-yl)-2-methylpropan-2-yl]amino}-2-hydroxypropyl]oxy}ethyl]phenyl}pentanoic acid]: the IC50 was ≤ 2.35 µM.

Regarding `COc1ccc([C@@H](C)OC[C@H](O)CNC(C)(C)CC2Cc3ccccc3C2)c(CCC(=O)O)c1` [Example 16], the IC50 was ≤ 2.34 µM.

For the compound `COc1cccc([C@@H](C)OC[C@H](O)CNC(C)(C)CC2Cc3ccccc3C2)c1CCC(=O)O` [Example 17], the concentration for half-maximal inhibition (IC50) was ≤ 2.34 µM.

Take `CC[C@@H](OC[C@H](O)CNC(C)(C)CC1Cc2ccccc2C1)c1ccccc1CCC(=O)O` [Example 18]: the IC50 was ≤ 2.42 µM.

Consider `CCC[C@@H](OC[C@H](O)CNC(C)(C)CC1Cc2ccccc2C1)c1ccccc1CCC(=O)O` [Example 21], for which the IC50 is ≤ 2.35 µM.

Turning to `Cc1cc(CCC(=O)O)c([C@@H](C)OC[C@H](O)CNC(C)(C)CC2Cc3ccccc3C2)cc1F` [Example 22], the half-maximal inhibitory concentration (IC50) is ≤ 2.33 µM.

On to `Cc1cc(CCCCC(=O)O)c([C@@H](C)OC[C@H](O)CNC(C)(C)CC2Cc3ccccc3C2)cc1F` [Example 23], for which the 50% inhibitory concentration (IC50) is ≤ 2.2 µM.

Take `C[C@@H](OC[C@H](O)CNC(C)(C)CC1Cc2ccccc2C1)c1ccc(C#N)cc1CCC(=O)O` [Example 25]: the half-inhibitory concentration (IC50) was ≤ 2.37 µM.

With `C[C@@H](OC[C@H](O)CNC(C)(C)CC1Cc2ccccc2C1)c1cc(F)c(F)cc1CCC(=O)O` [Example 26], the 50% inhibitory concentration (IC50) was ≤ 2.31 µM.

In the case of `C[C@@H](OC[C@H](O)CNC(C)(C)CC1Cc2ccccc2C1)c1cc(F)cc(F)c1CCC(=O)O` [Example 27], the IC50 is ≤ 2.31 µM.

As for `CC(C)(CC1Cc2ccccc2C1)NC[C@@H](O)CO[C@@H](c1ccccc1CCC(=O)O)C1CC1` [Example 29], the IC50 is ≤ 2.36 µM.

As to `C[C@@H](OC[C@H](O)CNC(C)(C)CC1Cc2ccccc2C1)c1cc(F)c(F)cc1CCCCC(=O)O` [Example 30], the half-maximal inhibitory concentration (IC50) was ≤ 2.18 µM.

Regarding `Cc1cccc(CCC(=O)O)c1C(C)OC[C@H](O)CNC(C)(C)CC1Cc2ccccc2C1` (stereo partly shown) [Example 32], the 50% inhibitory concentration (IC50) is ≤ 2.42 µM.

For `CC(OC[C@H](O)CNC(C)(C)CC1Cc2ccccc2C1)c1c(Cl)cccc1CCC(=O)O` (stereo partly shown) [Example 33], the IC50 was ≤ 2.32 µM.

With `C[C@@H](OC[C@H](O)CNC(C)(C)CC1Cc2ccccc2C1)c1cc(F)c(Cl)cc1CCC(=O)O` [Example 34], the IC50 is ≤ 2.24 µM.

On to `COc1cc(F)cc([C@@H](C)OC[C@H](O)CNC(C)(C)CC2Cc3ccccc3C2)c1CCC(=O)O` [Example 35], for which the half-maximal inhibitory concentration (IC50) was ≤ 2.26 µM.

`CC(OC[C@H](O)CNC(C)(C)CC1Cc2ccccc2C1)c1c(CCC(=O)O)ccc(F)c1F` (stereo partly shown) [Example 36]: the IC50 was ≤ 2.31 µM.

For `COc1cccc([C@@H](C)OC[C@H](O)CNC(C)(C)CC2Cc3ccccc3C2)c1CCCCC(=O)O` [Example 37], the half-maximal inhibitory concentration (IC50) was ≤ 2.21 µM.

Consider `CC[C@@H](OC[C@H](O)CNC(C)(C)CC1Cc2ccccc2C1)c1cc(F)ccc1CCC(=O)O` [Example 38], for which the IC50 is ≤ 2.33 µM.

As usually defined, the IC50 is the concentration needed to halve the response being measured.
